Here are results for 24 compounds from US11332459B2 (TEIJIN PHARMA LIMITED, priority 2017, dated 2022).

Each structure is given as a SMILES string. Where only a bound is given, the exact number is not on record here.

The target of the test is T1, human TRPC6 (Homo sapiens, UniProt Q9Y210).
T1 construct: expressed in transfected cells
T1 sequence (Q9Y210 1-931): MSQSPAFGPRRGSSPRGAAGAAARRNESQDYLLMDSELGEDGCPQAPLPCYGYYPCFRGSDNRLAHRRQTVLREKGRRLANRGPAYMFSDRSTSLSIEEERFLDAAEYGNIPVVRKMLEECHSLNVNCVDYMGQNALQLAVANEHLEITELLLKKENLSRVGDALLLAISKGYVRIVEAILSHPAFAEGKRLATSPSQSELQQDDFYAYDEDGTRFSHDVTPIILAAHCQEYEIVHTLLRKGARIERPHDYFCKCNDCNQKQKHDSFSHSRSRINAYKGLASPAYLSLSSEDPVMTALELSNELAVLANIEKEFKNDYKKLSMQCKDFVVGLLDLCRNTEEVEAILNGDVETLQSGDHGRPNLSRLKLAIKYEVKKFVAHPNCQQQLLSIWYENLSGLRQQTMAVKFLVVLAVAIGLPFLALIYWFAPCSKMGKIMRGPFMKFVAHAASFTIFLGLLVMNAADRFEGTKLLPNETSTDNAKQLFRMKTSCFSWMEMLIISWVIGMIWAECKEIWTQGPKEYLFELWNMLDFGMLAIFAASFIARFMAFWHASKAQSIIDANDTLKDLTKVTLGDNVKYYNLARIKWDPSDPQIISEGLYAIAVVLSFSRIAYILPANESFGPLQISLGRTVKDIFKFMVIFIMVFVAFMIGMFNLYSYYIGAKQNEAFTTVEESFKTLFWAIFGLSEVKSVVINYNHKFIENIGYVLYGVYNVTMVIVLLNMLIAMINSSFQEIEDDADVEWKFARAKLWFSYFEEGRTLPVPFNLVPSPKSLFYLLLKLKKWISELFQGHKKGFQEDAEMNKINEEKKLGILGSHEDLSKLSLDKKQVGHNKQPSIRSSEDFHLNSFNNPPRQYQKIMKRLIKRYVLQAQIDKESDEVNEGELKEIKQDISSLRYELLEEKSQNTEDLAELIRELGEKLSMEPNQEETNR
In words: TRPC6 calcium flux assay (FLIPR, OAG-stimulated calcium influx). In kind it is cell-based. Particulars: HEK293 cells stably transfected with human TRPC6, read-out: hTRPC6 Potency. The protocol: Biological Example 1 TRPC6 Calcium Flux Assay
Potency of TRPC6 (Transient receptor potential channel family C6) inhibitors were measured by their inhibition of Calcium influx trigged by […] (1-Oleoyl-2-acetyl-sn-glycerol, Millipore Sigma, O6754) stimulation on HEK293 cells stablely transfected with human TRPC6 using a FLIPR tetra system. Cells were grown in a humidified environment at 37° C. under 5% CO2 using the growth medium with the following selective reagents (Dulbecco's Modified Eagle's Medium (DMEM) high glucose, 10% Fetal Bovine Serum, 1×PSGlu (penicillin-streptomycin glutamine), 1×NEAA (Non-essential amino acid), 1× Na Pyruvate and 200 ug/ml Hygromycin). For general passage, cells were grown to 70-90% confluency; the media was removed, and the cells were gently washed 2 times with calcium and magnesium free PBS (phosphate-buffered saline). Trypsin (3 mL) was applied for 5 minutes at 37° C. The cells were dislodged by rapping flask against base of a hand and 7 mL of growth medium was added to deactivate trypsin and re-suspend cells. The usual splitting schedule was 1:5 every 2-3 days.
Cells were plated the day before the assay, plating cell density is 1.0-1.5×10^4/25 μl/well in poly-D-lysine (PDL) coated 384-well plates using either multichannel pipettes or multidrop. These cells were first incubated with fluorescence dye at room temperature for 90-120 minutes after they were grown on PDL-coated 384-well black plates overnight (Dye loading buffer 10 ml example: 9 mL assay buffer, 1 mL, 10×PBX signal enhancer, 10 μL Calcium indicator). The cells were incubated with a dose of compounds for 25 minutes before being stimulated with TRPC6 agonist OAG. The OAG solution was prepared by adding OAG into assay buffer (Ca ringer solution base: 10 mM HEPES (4-(2-hydroxyethyl)-1-piperazine-ethanesulfonic acid), 4 mM MgCl2, 120 mM NaCl, 5 mM KCl, pH=7.2 @25° C.)+0.1% BSA+2 mM CaCl2) to the concentration of 0.2 mM/2% DMSO, which achieves a final on cell concentration of 50 uM/0.5% DMSO. 12.5 uL OAG mixture was added and the activation of the TRPC6 channel was measured by the change of intracellular Calcium levels on FLIPR terra system.
Data was acquired by measuring the fluorescent peak signal subtracted from the background during the 180 second imaging frame. Each data point is further normalized to 100% of OAG triggered signal vs. buffer. Table 16 provides the IC50 for each compound, which data is obtained by plotting peak signal over the compound dose.
A general note: A change in cytosolic calcium serves as a functional read-out for many receptors and channels.
Regarding `CC(C#N)CN(C)C(=O)Cn1c(N2CC[C@@H](F)[C@H](N)C2)nc2cc(F)c(F)cc21` (mixture of isomers) [Example 621, 2-(2-((3R,4R)-3-amino-4-fluoropiperidin-1-yl)-5,6-difluoro-1H-benzo[d]imidazol-1-yl)-N-(2-cyanopropyl)-N-methylacetamide], the IC50 was 0.0753 µM.
The figure for `N#CC1CN(C(=O)Cn2c(N3CC[C@@H](F)[C@H](N)C3)nc3cc(F)c(F)cc32)CCO1` (mixture of isomers) [Example 627, 4-(2-(2-((3R,4R)-3-amino-4-fluoropiperidin-1-yl)-5,6-difluoro-1H-benzo[d]imidazol-1-yl)acetyl)morpholine-2-carbonitrile] is 0.122 µM.
On to `N[C@@H]1CN(c2nc3cc(F)c(F)cc3n2CC(=O)N2CCCC(O)C2)CC[C@H]1F` (mixture of isomers) [Example 628, 2-(2-((3R,4R)-3-amino-4-fluoropiperidin-1-yl)-5,6-difluoro-1H-benzo[d]imidazol-1-yl)-1-(3-hydroxypiperidin-1-yl)ethanone], for which the IC50 was determined as 0.132 µM.
With `CN(CC1CCOC1)C(=O)Cn1c(N2CC[C@@H](F)[C@H](N)C2)nc2cc(F)c(F)cc21` (mixture of isomers) [Example 633, 2-(2-((3R,4R)-3-amino-4-fluoropiperidin-1-yl)-5,6-difluoro-1H-benzo[d]imidazol-1-yl)-N-methyl-N-((tetrahydrofuran-3-yl)methyl)acetamide] the figure was 0.24 µM.
With `COCC1CN(C(=O)Cn2c(N3CC[C@@H](F)[C@H](N)C3)nc3cc(F)c(F)cc32)CCO1` (mixture of isomers) [Example 647, 2-(2-((3R,4R)-3-amino-4-fluoropiperidin-1-yl)-5,6-difluoro-1H-benzo[d]imidazol-1-yl)-1-(2-(methoxymethyl)morpholino) ethanone] the figure was 3.17 µM.
With `CCN(CC1CCN(C(C)=O)C1)C(=O)Cn1c(N2CC[C@@H](F)[C@H](N)C2)nc2cc(F)c(F)cc21` (mixture of isomers) [Example 650, N-((1-acetylpyrrolidin-3-yl)methyl)-2-(2-((3R,4R)-3-amino-4-fluoropiperidin-1-yl)-5,6-difluoro-1H-benzo[d]imidazol-1-yl)-N-ethylacetamide] the figure was > 1.75 µM.
On to `CN(CC1CCS(=O)(=O)C1)C(=O)Cn1c(N2CC[C@@H](F)[C@H](N)C2)nc2cc(F)c(F)cc21` (mixture of isomers) [Example 652, 2-(2-((3R,4R)-3-amino-4-fluoropiperidin-1-yl)-5,6-difluoro-1H-benzo[d]imidazol-1-yl)-N-((1,1-dioxidotetrahydrothiophen-3-yl)methyl)-N-methylacetamide], for which the IC50 is > 3.75 µM.
With `N#Cc1ccc(Cn2c(N3CCCC4(CCCN4)C3)nc3ccccc32)nc1` (racemic) [Example 128, 6-((2-((5R)-1,7-diazaspiro[4.5-]decan-7-yl)-1H-benzimidazol-1-yl)methyl)-3-pyridinecarbonitrile, 6-((2-((5S)-1,7-diazaspiro[4.5]decan-7-yl)-1H-benzimidazol-1-yl)methyl)-3-pyridinecarbonitrile] the figure was 0.0494 µM; with `CC1(CN)CCN(c2nc3ccccc3n2Cc2ccc(C#N)cc2)C1` (racemic) [Example 164, 4-((2-(3-(aminomethyl)-3-methylpyrrolidin-1-yl)-1H-benzo[d]imidazol-1-yl)methyl)benzonitrile], 0.253 µM.
With `N#Cc1ccc(Cn2c(N3C[C@@H](N)[C@H](c4ccccc4)C3)nc3ccccc32)cc1` (racemic) [Example 165, 4-((2-((3S,4R)-3-amino-4-phenylpyrrolidin-1-yl)-1H-benzo[d]imidazol-1-yl)methyl)benzonitrile & 4-((2-((3R,4S)-3 amino-4-phenylpyrrolidin-1-yl)-1H-benzo[d]imidazol-1-yl)methyl)benzonitrile], the IC50 amounted to 2.06 µM.
With `CC(c1ccccn1)N(C)C(=O)Cn1c(N2CC[C@@H](F)[C@H](N)C2)nc2cc(F)c(F)cc21` (mixture of isomers) [Example 608, 2-(2-((3R,4R)-3-amino-4-fluoropiperidin-1-yl)-5,6-difluoro-1H-benzo[d]imidazol-1-yl)-N-methyl-N-(1-(pyridin-2-yl)ethyl)acetamide] the figure was 0.0183 µM; with `N#Cc1ccc(Cn2c(N3CC[C@@H](F)[C@H](N)C3)nc3ncccc32)cc1` (single isomer, unassigned) [Example 415], 0.274 µM.
With `CN[C@@H]1CN(c2nc3c(F)cc(F)cc3n2[C@H](C)c2ccc(C#N)cn2)CC[C@H]1F` (single isomer, unassigned) [Example 438] the figure was 0.476 µM.
The figure for `CN[C@@H]1CN(c2nc3c(F)cc(F)cc3n2[C@@H](C)c2ccc(C#N)cn2)CC[C@H]1F` (single isomer, unassigned) [Example 439] is 0.0367 µM.
As for `CN[C@@H]1CN(c2nc3cc(F)cc(F)c3n2[C@H](C)c2ccc(C#N)cn2)CC[C@H]1F` (single isomer, unassigned) [Example 440], the IC50 came to 1.34 µM.
With `CN[C@@H]1CN(c2nc3cc(F)cc(F)c3n2[C@@H](C)c2ccc(C#N)cn2)CC[C@H]1F` (single isomer, unassigned) [Example 441] the figure was 0.00224 µM.
With `CO[C@@H]1CCN(c2nc3ccc(F)cc3n2Cc2ncc(Cl)cn2)C[C@H]1N` (single isomer, unassigned) [Example 456] the figure was 0.00844 µM; with `CN(CC(F)(F)F)C(=O)Cn1c(N2CC[C@H](F)[C@H](N)C2)nc2ccc(F)cc21` (single isomer, unassigned) [Example 466], 0.103 µM.
Regarding `N[C@@H]1CN(c2nc3ccc(F)cc3n2Cc2ncc(Cl)cn2)CC[C@H]1O` (single isomer, unassigned) [Example 496], the IC50 is 0.0611 µM.
In the case of `CN(CC(F)F)C(=O)Cn1c(N2CC[C@@H](F)[C@H](N)C2)nc2cc(F)c(F)cc21` (single isomer, unassigned) [Example 634], the IC50 came out at 0.26 µM.
The figure for `CN(CC(F)(F)F)C(=O)Cn1c(N2CC[C@@H](F)[C@H](N)C2)nc2cc(F)c(F)cc21` (single isomer, unassigned) [Example 635] is 0.304 µM.
With `Cc1cc(Cn2c(N3CC[C@@H](F)[C@H](N)C3)nc3cc(F)c(F)cc32)ccc1C#N` (stereo in doubt) [Example 345, 4-((2-((3R,4R)-3-amino-4-fluoro-1-piperidinyl)-5,6-difluoro-1H-benzimidazol-1-yl)methyl)-2-methylbenzonitrile] the figure was 0.0015 µM.
With `CCOc1ccc2nc(N3CC[C@@H](F)C(N)C3)n(Cc3ccc(C#N)cc3)c2c1` (stereo in doubt) [Example 414, 4-((2-((3R,4R)-3-amino-4-fluoro-1-piperidinyl)-6-ethoxy-1H-benzimidazol-1-yl)methyl)benzonitrile] the figure was 0.0015 µM; with `N#Cc1ccc(Cn2c(N3CCC(F)(F)C(N)C3)nc3ccc(F)cc32)cc1` (stereo in doubt) [Example 416, 4-((2-((3R)-3-amino-4,4-difluoro-1-piperidinyl)-6-fluoro-1H-benzimidazo-1-yl)methyl)benzonitrile], 0.00236 µM.
